Laboratory results from patent publication US10548829B2, “Oral care compositions and methods of use” (priority 2016, dated 2020).
Read-outs that look alike come from different tables or passages of the source.

Tests used:
[1] = Growth inhibition (OD610), mixed chemostat culture; format: cell-based, A. viscosus, L. casei, S. oralis, F. nucleatum, V. parvula; conditions: Mixed species incubated in 37° C.
Protocol: (§1) Single species of Streptococcus gordonii (S. gordonii, S.g) strain V288 (ATCC #35105), Streptococcus sobrinus (S. sobrinus, S.$) strain SL1[CCM 6070, CNCTC 9/89] (ATCC #33478), or Aggregatibacter actinomycetemcomitans were analyzed. Also, a mixed culture containing Actinomyces viscosus (A. viscosus, A.v) strain (ATCC, #43146), Lactobacillus casei (L. casei, L.c) strain (ATCC #334), Streptococcus oralis (S. oralis, S. o) strain (ATCC #35037), Fusobacterium nucleatum (F. nucleatum, F. n) strain (ATCC #10953), and Veilonella parvula (V. parvula, V. p) strain (ATCC #17745) was also analyzed for growth inhibition/toxicity activity. Bacteria were cultured overnight in approximately 20 ml of BHI broth (BD, cat #237500) or maintained in a specialized complex modified BHI II medium in a continuous culture chemostat at 37° C. respectively. The following day, the OD610 were determined and solutions diluted to an OD610 of 0.2 or 0.1 respectively for the assay.
(§2) Triclosan (positive control) was prepared as a 10% stock in 100% EtOH and 3 fold serial dilutions were performed in 100% EtOH. An appropriate amount of the diluted samples was then transferred into a 96 well clear plate such that the resulting final concentration of the test samples ranged from either a 2 mM or 4 mM (highest concentration) to 0.0078 mM or 0.0156 mM (lowest concentration respectively) in 2% DMSO in 100 μl media per well. Triclosan (TCN) ranged from 0.01% to 1.67e-6% in 1% EtOH. For Zinc acetate, in order to mimic the 2:1 molar ratio (ligand:Zinc) in the Naringin:Zinc complex, the final concentration ranged from 0.7 mM to 0.0027 mM for samples with 2 mM as the highest concentration and 1.33 mM to […] for samples with 4 mM as the highest concentration in 2% DMSO. Next, 100 μl of bacterial culture at OD610 0.2 were introduced to the wells with the test samples. The wells were thoroughly mixed and incubated at 37° C. overnight. The plates were read using an Envision plate reader (PerkinElmer, Waltham, Mass.) at 610 nm.
(§3) The IC50 for the complex, Product 5, was determined for Streptococcus gordonii (S. gordonii), Streptococcus sobrinus (S. sobrinus), Aggregatibacter actinomycetemcomitans (A. actinomycetemcomitans), and also for the mixed bacterial culture. […] Triclosan (TCN) was included as a positive control for bacterial inhibition.
(§4) Antimicrobial characterization was also performed on mixed culture solutions having at least five microbial species present. A mixed culture containing Actinomyces viscosus (A. viscosus, A.v) (ATCC, #43146), Lactobacillus casei (L. casei, L.c) (ATCC #334), Streptococcus oralis (S. oralis, S.o) (ATCC #35037), Fusobacterium nucleatum (F. nucleatum, F.n) (ATCC #10953) and Veilonella parvula (V. parvula, V.p) (ATCC #17745) was maintained in a specialized complex medium (Modified BHI II Medium) in a continuous culture chemostat at 37° C. Approximately 10 ml of the culture was removed and the OD610 was determined. The assay was performed using cultures at two concentrations; 0.03 and 0.1 at OD610. […] Triclosan (positive control) was prepared as a 10% stock in 100% EtOH and 3 fold serial dilutions were performed in 100% EtOH. […] For Zinc Acetate, in order to mimic the 2:1 ratio (ligand:Zinc) composition as in the complex, the final concentration range from 0.7 mM to 0.0027 mM in 2% DMSO was used instead.
(§5) A 100 μl of bacterial culture at chosen OD610 (0.03 or 0.1) was introduced into the wells with the test samples. The wells were thoroughly mixed and plates incubated overnight in a 37° C. incubator with or without 5% CO2. After approximately 12-13 hours of treatment, the plate was read using Envision plate reader (Serial #1040984), absorbance at 610 nm. The % inhibition relative to control was determined as described for previously described antimicrobial protocols, supra.

[2] = system: mixed culture containing Actinomyces viscosus, Lactobacillus casei, Streptococcus oralis, Fusobacterium nucleatum and Veilonella parvula; assay: Growth inhibition (OD610), mixed chemostat culture; format: cell-based, A. viscosus, L. casei, S. oralis, F. nucleatum, V. parvula; conditions: for % Inhibition: Mixed species incubated in 37° C., 0.0875 mM
Protocol: as §1, §2, §3, §4, §5

Compound | inhibition at 250 µM ([1]; 5% CO2 (anaerobic), 0.25 mM (combination 0.1625 mM + 0.0875 mM, 0.25 mM total)) | inhibition at 250 µM ([1]; Air (aerobic), 0.25 mM (combination 0.25 mM total)) | IC50 ([2]; Mixed Species (aerobic)) | IC50 ([2]; Mixed Species (anaerobic), read-out: IC50) | % Inhibition ([2]; 5% CO2 (anaerobic)) | % Inhibition ([2]; Air (aerobic))
C[C@@H]1O[C@@H](O[C@H]2[C@H](Oc3cc(O)c4c(c3)O[C@H](c3ccc(O)cc3)CC4=O)O[C@H](CO)[C@@H](O)[C@@H]2O)[C@H](O)[C@H](O)[C@H]1O [Naringin] | 3.51 ± 1.53% | 3.1 ± 3.31% | – | – | – | –
CC(=O)[O-].CC(=O)[O-].[Zn+2] [Zinc Acetate alone, Zinc (II) Acetate] | – | – | Ambiguous | 250 µM | −1.46 ± 0.0% | 18.07 ± 2.65%
